Source: ChEMBL document CHEMBL5465560, “Selectivity Literature for EUbOPEN Chemogenomic Library” (2024)

Assays:
[1] = target: T1, Aurora kinase A (Homo sapiens) (UniProt O14965); test: Selectivity interaction (Kinase panel (KiNativ target engagement assay in Jurkat cells)) EUB0001635a STK6; format: cell-based; conditions: at 1 µM
T1 sequence (whole entry): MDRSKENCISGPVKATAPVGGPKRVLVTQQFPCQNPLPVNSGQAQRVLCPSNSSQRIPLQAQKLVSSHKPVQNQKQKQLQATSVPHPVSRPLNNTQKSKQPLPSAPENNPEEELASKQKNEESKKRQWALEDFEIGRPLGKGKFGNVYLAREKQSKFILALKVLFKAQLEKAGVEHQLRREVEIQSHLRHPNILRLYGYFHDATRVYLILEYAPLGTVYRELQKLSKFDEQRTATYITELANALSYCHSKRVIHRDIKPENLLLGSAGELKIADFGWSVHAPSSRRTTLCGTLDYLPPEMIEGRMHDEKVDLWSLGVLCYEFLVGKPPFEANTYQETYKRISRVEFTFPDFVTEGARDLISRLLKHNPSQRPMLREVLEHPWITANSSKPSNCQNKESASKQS

[2] = target: Serine/threonine-protein kinase PAK 6 (Homo sapiens) (UniProt Q9NQU5); test: Selectivity interaction (KinomeScan (DiscoverX)) EUB0001079a PAK6; conditions: at 1 µM
Serine/threonine-protein kinase PAK 6 (Homo sapiens), sequence (Q9NQU5 whole entry, looked up): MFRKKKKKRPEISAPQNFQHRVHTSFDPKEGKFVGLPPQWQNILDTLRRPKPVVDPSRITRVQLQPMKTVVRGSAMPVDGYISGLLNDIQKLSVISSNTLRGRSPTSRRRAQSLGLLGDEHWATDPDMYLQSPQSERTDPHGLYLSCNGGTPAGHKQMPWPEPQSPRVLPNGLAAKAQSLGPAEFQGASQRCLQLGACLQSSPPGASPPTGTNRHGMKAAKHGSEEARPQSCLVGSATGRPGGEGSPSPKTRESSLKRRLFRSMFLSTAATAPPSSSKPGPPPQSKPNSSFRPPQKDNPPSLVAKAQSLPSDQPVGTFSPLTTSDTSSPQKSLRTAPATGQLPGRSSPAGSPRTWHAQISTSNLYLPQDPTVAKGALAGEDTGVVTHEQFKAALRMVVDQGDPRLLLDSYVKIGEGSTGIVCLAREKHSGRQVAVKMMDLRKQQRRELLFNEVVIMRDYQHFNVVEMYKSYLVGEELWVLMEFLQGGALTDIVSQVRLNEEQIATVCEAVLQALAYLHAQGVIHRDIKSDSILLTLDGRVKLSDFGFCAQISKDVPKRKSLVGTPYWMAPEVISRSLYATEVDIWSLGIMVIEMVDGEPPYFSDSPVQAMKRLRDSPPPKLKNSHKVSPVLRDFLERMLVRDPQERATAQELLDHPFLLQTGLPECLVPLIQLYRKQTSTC

[3] = target: Fibroblast growth factor receptor 3 (Homo sapiens, UniProt P22607); test: Selectivity interaction (Kinase screening (Nanosyn)) EUB0000604a FGFR3
Fibroblast growth factor receptor 3, sequence (P22607 23-806 limits assumed): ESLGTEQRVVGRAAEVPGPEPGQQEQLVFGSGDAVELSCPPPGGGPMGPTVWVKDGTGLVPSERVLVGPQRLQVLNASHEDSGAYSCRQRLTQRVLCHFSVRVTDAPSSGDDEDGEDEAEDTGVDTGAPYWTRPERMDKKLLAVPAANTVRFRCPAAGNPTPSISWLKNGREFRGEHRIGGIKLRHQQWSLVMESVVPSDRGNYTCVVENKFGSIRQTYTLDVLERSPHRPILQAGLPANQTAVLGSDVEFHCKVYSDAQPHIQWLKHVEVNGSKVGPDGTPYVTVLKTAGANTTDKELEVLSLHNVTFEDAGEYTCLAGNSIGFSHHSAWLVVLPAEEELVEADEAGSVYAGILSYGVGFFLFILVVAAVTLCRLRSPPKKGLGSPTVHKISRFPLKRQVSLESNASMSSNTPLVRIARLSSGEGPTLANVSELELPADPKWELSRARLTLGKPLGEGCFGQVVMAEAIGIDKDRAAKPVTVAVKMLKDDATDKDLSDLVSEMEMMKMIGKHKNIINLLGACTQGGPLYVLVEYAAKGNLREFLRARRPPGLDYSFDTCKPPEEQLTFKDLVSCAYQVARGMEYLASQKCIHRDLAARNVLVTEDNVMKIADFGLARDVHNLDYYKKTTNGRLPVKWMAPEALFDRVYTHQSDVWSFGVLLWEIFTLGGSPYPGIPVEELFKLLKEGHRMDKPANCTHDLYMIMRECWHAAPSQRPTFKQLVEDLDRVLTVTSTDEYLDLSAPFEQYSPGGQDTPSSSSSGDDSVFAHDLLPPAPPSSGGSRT

[4] = target: MAP kinase-activated protein kinase 2 (Homo sapiens, UniProt P49137); test: Selectivity interaction (KinomeScan (DiscoverX)) EUB0001049a MAPKAPK2; conditions: at 1 µM
MAP kinase-activated protein kinase 2, sequence (P49137 whole entry, looked up): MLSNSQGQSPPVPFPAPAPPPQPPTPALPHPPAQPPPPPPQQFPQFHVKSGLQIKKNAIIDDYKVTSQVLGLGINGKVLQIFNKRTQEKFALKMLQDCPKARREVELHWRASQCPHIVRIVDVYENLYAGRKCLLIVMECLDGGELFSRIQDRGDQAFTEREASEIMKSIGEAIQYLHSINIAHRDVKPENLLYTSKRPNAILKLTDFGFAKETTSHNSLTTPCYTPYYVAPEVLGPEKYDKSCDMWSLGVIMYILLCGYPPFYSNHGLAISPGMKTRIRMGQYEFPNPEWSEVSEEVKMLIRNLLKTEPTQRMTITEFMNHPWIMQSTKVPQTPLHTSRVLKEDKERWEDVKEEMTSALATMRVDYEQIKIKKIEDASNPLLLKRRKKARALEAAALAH

[5] = target: Receptor-type tyrosine-protein kinase FLT3 (Homo sapiens) (UniProt P36888); test: Selectivity interaction (Upstate Kinase Profiler service (Millipore)) EUB0000056c FLT3; conditions: at 1 µM
Receptor-type tyrosine-protein kinase FLT3 (Homo sapiens), sequence (P36888 whole entry): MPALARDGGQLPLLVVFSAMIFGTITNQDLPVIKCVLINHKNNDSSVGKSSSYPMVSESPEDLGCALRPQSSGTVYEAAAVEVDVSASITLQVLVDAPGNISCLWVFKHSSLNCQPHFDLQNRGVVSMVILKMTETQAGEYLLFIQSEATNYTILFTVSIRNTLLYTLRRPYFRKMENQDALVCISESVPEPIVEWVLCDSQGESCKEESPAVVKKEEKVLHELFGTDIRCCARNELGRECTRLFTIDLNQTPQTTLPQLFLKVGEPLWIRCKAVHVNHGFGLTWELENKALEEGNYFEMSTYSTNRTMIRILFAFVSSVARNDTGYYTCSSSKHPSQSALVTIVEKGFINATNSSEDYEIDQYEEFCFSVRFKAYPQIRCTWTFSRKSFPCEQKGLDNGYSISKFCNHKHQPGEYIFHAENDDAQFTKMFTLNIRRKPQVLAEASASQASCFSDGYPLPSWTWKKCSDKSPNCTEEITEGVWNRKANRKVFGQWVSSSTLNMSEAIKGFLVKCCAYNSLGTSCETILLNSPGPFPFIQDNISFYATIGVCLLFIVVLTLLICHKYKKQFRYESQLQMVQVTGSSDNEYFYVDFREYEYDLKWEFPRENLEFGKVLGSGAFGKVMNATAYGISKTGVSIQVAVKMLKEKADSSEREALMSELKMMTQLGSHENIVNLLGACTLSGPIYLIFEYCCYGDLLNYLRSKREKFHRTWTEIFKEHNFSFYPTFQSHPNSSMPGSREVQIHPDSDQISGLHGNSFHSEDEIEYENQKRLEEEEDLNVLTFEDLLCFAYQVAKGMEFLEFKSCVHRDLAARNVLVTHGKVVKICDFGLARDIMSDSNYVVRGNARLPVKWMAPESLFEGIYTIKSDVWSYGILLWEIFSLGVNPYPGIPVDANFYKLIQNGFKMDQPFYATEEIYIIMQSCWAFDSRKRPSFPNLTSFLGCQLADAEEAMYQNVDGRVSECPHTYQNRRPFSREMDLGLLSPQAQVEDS

[6] = target: T2, Bone morphogenetic protein receptor type-2 (Homo sapiens) (UniProt Q13873); test: Selectivity interaction (KinomeScan (DiscoverX)) EUB0001619a BMPR2; conditions: at 1 µM
T2 sequence (whole entry): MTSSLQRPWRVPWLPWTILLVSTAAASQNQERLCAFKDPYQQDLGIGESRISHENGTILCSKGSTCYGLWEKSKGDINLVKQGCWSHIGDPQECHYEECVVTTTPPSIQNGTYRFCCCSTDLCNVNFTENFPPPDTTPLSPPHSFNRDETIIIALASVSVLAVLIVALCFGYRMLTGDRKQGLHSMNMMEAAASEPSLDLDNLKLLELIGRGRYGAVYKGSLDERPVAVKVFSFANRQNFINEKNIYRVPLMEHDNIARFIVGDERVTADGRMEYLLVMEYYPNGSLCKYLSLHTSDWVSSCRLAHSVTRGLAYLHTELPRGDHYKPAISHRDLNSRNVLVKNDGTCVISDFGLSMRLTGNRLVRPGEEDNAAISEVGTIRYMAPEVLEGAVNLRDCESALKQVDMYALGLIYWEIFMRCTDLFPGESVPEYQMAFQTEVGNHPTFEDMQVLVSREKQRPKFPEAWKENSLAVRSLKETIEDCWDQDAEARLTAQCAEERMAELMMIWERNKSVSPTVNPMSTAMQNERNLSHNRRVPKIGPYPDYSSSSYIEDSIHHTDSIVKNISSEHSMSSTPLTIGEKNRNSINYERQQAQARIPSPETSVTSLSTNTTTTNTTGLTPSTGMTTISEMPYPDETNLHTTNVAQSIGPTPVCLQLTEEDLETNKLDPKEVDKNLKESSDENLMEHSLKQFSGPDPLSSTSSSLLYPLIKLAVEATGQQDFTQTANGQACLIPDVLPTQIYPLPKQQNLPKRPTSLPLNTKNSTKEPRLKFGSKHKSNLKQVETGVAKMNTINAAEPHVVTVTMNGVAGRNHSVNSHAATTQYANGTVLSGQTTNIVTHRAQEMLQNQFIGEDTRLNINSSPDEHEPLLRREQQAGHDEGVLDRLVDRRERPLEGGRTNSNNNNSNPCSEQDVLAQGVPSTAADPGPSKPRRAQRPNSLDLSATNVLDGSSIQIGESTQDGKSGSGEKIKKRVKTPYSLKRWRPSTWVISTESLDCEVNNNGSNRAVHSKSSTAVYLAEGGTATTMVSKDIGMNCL

[7] = target: Wee1-like protein kinase 2 (Homo sapiens) (UniProt P0C1S8); test: Selectivity interaction (KinomeScan (DiscoverX)) EUB0001619a WEE2; conditions: at 1 µM
Wee1-like protein kinase 2 (Homo sapiens), sequence (P0C1S8 whole entry, looked up): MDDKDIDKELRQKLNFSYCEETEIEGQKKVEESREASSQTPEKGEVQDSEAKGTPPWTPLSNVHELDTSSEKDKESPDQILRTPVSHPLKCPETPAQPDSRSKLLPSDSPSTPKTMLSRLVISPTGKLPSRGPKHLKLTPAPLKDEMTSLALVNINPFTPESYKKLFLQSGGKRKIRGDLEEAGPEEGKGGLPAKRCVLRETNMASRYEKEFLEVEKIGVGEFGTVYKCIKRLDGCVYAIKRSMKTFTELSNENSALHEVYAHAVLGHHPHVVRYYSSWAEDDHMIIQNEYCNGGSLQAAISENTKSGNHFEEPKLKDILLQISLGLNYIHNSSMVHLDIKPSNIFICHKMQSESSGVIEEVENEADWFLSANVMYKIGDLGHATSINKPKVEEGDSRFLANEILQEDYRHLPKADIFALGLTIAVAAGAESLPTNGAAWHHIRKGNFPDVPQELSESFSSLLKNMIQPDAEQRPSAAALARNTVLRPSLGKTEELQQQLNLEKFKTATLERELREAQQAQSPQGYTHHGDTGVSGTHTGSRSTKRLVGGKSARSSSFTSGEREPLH

[8] = target: Serine/threonine-protein kinase PAK 2 (Homo sapiens) (UniProt Q13177); test: Selectivity interaction (SelectScreen profiling (Invitrogen)) EUB0000607a PAK2; conditions: at 2 µM
Serine/threonine-protein kinase PAK 2 (Homo sapiens), sequence (Q13177 whole entry): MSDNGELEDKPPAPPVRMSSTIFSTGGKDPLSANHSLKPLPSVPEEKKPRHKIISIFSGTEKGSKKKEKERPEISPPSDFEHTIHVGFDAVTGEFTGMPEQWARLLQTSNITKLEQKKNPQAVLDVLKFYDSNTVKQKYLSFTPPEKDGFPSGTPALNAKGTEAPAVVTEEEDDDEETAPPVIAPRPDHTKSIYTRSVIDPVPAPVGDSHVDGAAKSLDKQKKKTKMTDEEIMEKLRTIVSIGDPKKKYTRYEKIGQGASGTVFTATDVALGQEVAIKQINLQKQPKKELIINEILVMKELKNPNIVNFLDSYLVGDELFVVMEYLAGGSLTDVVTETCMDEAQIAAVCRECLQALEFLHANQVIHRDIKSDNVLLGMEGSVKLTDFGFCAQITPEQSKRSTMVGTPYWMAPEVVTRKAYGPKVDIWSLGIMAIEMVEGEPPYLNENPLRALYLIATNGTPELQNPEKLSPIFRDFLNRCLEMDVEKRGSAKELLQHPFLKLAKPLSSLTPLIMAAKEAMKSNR

[9] = target: T3, Scaffold protein ILK (Homo sapiens) (UniProt Q13418); test: Selectivity interaction (ActivX KiNativ screen (kinase selectivity in THP-1 cell lysates)) EUB0000639a ILK; format: subcellular; conditions: lysate, at 5 µM
T3 sequence (whole entry): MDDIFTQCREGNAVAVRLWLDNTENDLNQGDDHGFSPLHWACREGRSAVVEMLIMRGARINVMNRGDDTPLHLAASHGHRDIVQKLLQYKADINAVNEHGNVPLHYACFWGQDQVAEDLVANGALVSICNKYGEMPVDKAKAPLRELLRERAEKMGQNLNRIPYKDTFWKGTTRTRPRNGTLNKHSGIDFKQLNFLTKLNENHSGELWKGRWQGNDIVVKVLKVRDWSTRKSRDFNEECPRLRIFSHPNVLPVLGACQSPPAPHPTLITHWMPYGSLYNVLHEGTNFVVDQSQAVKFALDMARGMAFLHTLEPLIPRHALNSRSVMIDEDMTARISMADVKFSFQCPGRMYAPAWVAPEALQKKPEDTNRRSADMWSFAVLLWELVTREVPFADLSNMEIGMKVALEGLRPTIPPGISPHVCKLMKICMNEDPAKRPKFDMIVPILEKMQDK

For `C=CC(=O)Nc1ccc(C(=O)Nc2[nH]nc3c2CN(C(=O)N[C@H](CN(C)C)c2ccccc2)C3(C)C)cc1`, the % of engagement [1] was 14.1%.

In the case of `Nc1cnc(N2CCc3cc(S(=O)(=O)Nc4c(F)cc(Cl)cc4F)cc(N4CCCC4=O)c32)nc1` [TP-020n], the % of control [2] is reported as 90%.

`Cc1cnc(Nc2ccc(F)cc2Cl)nc1-c1c[nH]c(C(=O)N[C@H](CO)c2cccc(Cl)c2)c1` was tested, and the % of inhibition [3] was 8%.

Work on `COc1cc(Nc2nc(C)cc(-c3cnn4nc(OC)ccc34)n2)cc(C(F)(F)F)c1` yielded a % of control [4] of 52%.

With `Cc1ccc(-c2ccc3c(ccc4sc5c(c43)NC[C@@H](C)NC5=O)n2)cn1` the % of inhibition [5] was -11%.

Molecule `N#Cc1cccc(-c2c[nH]c3ncnc(N4CCOCC4)c23)c1` has a % of control [6] of 80% and a % of control [7] of 96%.

`CNC(=O)Nc1ccc(-c2nc(N3CC4CCC(C3)O4)c3cnn(C4CCC5(CC4)OCCO5)c3n2)cc1` showed a % of inhibition [8] of 15%.

With `CC[C@@H]1[C@H](F)C(=O)N[C@@H]1COc1nccc2cc(C(N)=O)c(OC)cc12` [ZIMLOVISERTIB] the % of inhibition [9] was -24.1%.
